Experimental data from ChEMBL document CHEMBL1137185, “Cytotoxic effects and reversal of multidrug resistance by ibogan and related indole alkaloids” (Bioorg Med Chem Lett, 2004).
≈ marks a conversion by molar mass, not a printed value.

Tests used:
KB [1] = experiment: Cytotoxic activity against vincristine-sensitive human oral epidermoid carcinoma cell line(KB/S); format: functional, cell-based
KB [2] = experiment: Cytotoxic activity against vincristine-resistant human oral epidermoid carcinoma cell line (KB/VJ300); format: functional, cell-based

| Compound | IC50 (KB [1]) [µg/mL] | IC50 (KB [2]) [µg/mL] |
| --- | --- | --- |
| CCOC1[C@H]2C[C@H](CC)[C@@H]3N1CCc1c([nH]c4ccccc14)[C@]3(C(=O)OC)C2 (some centres not stated) | > 25 | 13 (≈ 34 µM) |
| CCOC1[C@H]2C[C@H]([C@@H](C)O)[C@@H]3N1CCc1c([nH]c4ccccc14)[C@]3(C(=O)OC)C2 (some centres not stated) | > 25 | > 25 |
| COC(=O)[C@@]12C[C@@H]3C[C@H]([C@@H](C)O)[C@@H]1N(CCc1c2[nH]c2cc(OC)ccc12)C3 | > 25 | > 25 |
| CCC1C[C@H]2C[C@@]3(C(=O)OC)c4[nH]c5ccccc5c4CCN(C2=O)[C@@H]13 (some centres not stated) | > 25 | > 25 |
| CC[C@H]1C[C@@H]2CN3CCc4c([nH]c5ccccc45)[C@](C(=O)OC)(C2)[C@H]13 [CORONARIDINE] | 11.5 (≈ 34 µM) | 2.6 (≈ 7.68 µM) |
| COC(=O)[C@@]12C[C@@H]3C[C@H]([C@@H](C)O)[C@@H]1N(CCc1c2[nH]c2ccccc12)C3=O | > 25 | > 25 |
| CC[C@H]1C[C@@H]2CN3CCc4c([nH]c5ccccc45)C(C)(C2)[C@H]13 | > 25 | > 25 |
| COC(=O)[C@]12C[C@H]3CC4[C@H](C)OCN(CCc5c1n(c1ccccc51)C3O)[C@@H]42 (some centres not stated) | 25 (≈ 65.4 µM) | 4 (≈ 10.5 µM) |
| COC(=O)[C@@]12C[C@@H]3C[C@H]([C@H](C)O)[C@@H]1N(CCc1c2[nH]c2ccccc12)C3 | > 25 | 8.5 (≈ 24 µM) |
| COC(=O)[C@@]12C[C@H]3C[C@@H](C(C)=O)[C@@H]1NCCc1c2n(c2ccccc12)C3O (some centres not stated) | 25 (≈ 67.9 µM) | 2 (≈ 5.43 µM) |
| CC[C@H]1C[C@H]2C[C@@]3(C(=O)OC)c4[nH]c5ccc(OC)cc5c4CCN(C2C#N)[C@@H]13 (some centres not stated) | 9.4 (≈ 23.9 µM) | 7 (≈ 17.8 µM) |
| CC[C@H]1C[C@H]2C[C@@]3(C(=O)OC)c4[nH]c5ccccc5c4CCN(C2C#N)[C@@H]13 (some centres not stated) | 2.2 (≈ 6.05 µM) | 1.4 (≈ 3.85 µM) |
| COC(=O)[C@@]12C[C@@H]3C[C@H](C(C)(O)O)[C@@H]1N(CCc1c2[nH]c2cc(OC)ccc12)C3 | > 25 | 14.5 (≈ 36.2 µM) |
| CC[C@H]1C[C@@H]2C[C@@]3(C(=O)OC)c4c(c5ccccc5n4C2O)CCN[C@@H]13 (some centres not stated) | 3.5 (≈ 9.87 µM) | 2.5 (≈ 7.05 µM) |
| COC(=O)N1c2ccccc2C23CCN4CCCC5(CCC12[C@](O)(C(=O)OC)C5)[C@H]43 (some centres not stated) | > 25 | 0.64 (≈ 1.55 µM) |
| CC[C@H]1C[C@H]2C[C@@]3(C(=O)OC)c4[nH]c5cc(OC)ccc5c4CCN(C2C#N)[C@@H]13 (some centres not stated) | 1.9 (≈ 4.83 µM) | 1.1 (≈ 2.8 µM) |
| COC(=O)[C@@]12C[C@@H]3C[C@H]([C@H](C)O)[C@@H]1N(CCc1c2[nH]c2cc(OC)ccc12)C3 [ISOVOACRISTINE] | > 25 | 18.8 (≈ 48.9 µM) |
| CC[C@H]1C[C@@H]2CN3CCc4c([nH]c5ccc(OC)cc45)[C@](C(=O)OC)(C2)[C@H]13 [VOACANGINE] | > 25 | > 25 |
| C[C@H](O)[C@H]1C[C@H]2C[C@H]3c4[nH]c5ccccc5c4CCN(C2)[C@@H]13 | 16.1 (≈ 54.3 µM) | 7.8 (≈ 26.3 µM) |
| CC[C@H]1C[C@H](CO)C[C@@]2(C(=O)OC)c3[nH]c4ccccc4c3CCN[C@@H]12 | > 25 | > 25 |
| COC(=O)[C@@]12C[C@@H]3C[C@@H]([C@H](C)O)[C@@H]1NCCc1c2n(c2cc(OC)ccc12)[C@H]3O | > 25 | > 25 |
| CC[C@H]1C[C@@H]2CN3CCc4c([nH]c5cc(OC)ccc45)[C@](C(=O)OC)(C2)[C@H]13 [ISOVOACANGINE] | > 25 | > 25 |
| COC(=O)[C@@]12C[C@@H]3C[C@H]([C@@H](C)O)[C@@H]1N(CCc1c2[nH]c2ccccc12)C3 | 25 (≈ 70.5 µM) | 3.5 (≈ 9.87 µM) |
| CCOC1[C@H]2C[C@H]([C@H](C)O)[C@@H]3N1CCc1c([nH]c4ccccc14)[C@]3(C(=O)OC)C2 (some centres not stated) | > 25 | > 25 |
| CC[C@H]1C[C@@H]2CN3CC[C@]4(O)C(=Nc5ccccc54)[C@](C(=O)OC)(C2)[C@H]13 [CORONARIDINE HYDROXYINDOLENINE] | > 25 | > 25 |
| COC(=O)[C@]12C[C@H]3CC4[C@H](C)OCN(CCc5c1n(c1cc(OC)ccc51)C3=O)[C@@H]42 (some centres not stated) | > 25 | > 25 |
